Patent US11713338B2, “Cyclic peptides multimers targeting α-4-β-7 integrin” (priority 2016, dated 2023)
Like-named read-outs stand apart in the source and are kept apart here.

Target: T1, integrin α4β7 on α4β7+ memory T helper cells (Homo sapiens, UniProt P13612+P26010)
T1 construct: endogenous in cells
T1 sequence (P13612 34-1032): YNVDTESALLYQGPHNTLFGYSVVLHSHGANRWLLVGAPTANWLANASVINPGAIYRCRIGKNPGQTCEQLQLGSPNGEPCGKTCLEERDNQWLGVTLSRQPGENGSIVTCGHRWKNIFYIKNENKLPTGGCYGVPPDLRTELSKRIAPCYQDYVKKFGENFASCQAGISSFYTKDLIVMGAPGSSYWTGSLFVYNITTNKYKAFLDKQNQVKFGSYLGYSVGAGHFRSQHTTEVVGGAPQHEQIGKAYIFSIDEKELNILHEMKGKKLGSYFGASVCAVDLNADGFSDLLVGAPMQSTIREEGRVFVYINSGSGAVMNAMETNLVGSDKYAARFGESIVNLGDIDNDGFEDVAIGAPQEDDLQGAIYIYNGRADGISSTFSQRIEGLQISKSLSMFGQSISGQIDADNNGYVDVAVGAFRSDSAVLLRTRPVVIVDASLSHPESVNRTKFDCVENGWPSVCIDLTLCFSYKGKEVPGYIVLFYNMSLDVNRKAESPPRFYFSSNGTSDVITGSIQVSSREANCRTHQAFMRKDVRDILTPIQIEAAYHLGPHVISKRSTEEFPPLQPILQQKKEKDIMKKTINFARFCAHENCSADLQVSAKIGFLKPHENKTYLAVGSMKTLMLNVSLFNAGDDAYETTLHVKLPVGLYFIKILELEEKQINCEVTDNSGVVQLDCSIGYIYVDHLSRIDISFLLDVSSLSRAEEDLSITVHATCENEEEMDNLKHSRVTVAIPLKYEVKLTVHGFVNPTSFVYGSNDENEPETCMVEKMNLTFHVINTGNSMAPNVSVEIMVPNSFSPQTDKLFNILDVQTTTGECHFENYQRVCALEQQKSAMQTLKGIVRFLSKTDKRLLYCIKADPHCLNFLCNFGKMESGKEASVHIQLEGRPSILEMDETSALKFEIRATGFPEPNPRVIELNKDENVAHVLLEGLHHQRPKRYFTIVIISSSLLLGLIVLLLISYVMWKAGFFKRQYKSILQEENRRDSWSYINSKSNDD
T1 sequence (P26010 20-798): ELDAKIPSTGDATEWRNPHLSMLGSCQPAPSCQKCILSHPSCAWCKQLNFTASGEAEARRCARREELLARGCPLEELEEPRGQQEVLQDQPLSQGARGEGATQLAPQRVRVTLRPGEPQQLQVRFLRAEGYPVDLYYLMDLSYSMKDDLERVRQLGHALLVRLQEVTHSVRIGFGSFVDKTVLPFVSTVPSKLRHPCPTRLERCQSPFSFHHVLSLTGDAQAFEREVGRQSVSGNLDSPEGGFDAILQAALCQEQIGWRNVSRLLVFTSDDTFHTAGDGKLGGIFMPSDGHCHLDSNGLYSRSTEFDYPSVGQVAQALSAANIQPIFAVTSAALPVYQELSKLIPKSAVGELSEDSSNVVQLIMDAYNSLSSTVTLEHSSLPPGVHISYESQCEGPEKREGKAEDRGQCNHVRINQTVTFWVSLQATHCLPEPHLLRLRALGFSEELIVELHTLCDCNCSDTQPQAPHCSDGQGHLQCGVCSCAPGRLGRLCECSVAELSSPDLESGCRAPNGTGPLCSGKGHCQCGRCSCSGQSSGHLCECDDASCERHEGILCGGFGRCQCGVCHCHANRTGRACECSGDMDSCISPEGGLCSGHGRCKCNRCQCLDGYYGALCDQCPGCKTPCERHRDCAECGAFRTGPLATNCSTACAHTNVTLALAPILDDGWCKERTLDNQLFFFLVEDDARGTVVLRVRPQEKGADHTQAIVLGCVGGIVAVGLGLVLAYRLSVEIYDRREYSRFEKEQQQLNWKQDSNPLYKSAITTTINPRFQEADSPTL
Test: MAdCAM-1 competition / receptor occupancy assay in human whole blood, α4β7-positive Th memory cells
Type: cell-based
Settings: human whole blood
Description: Analyte Competition Assay in CD4+ Integrin α4+β7-Lo Memory T Cells
Receptor occupancy in primary cells was determined by measuring the amount of biotinylated human recombinant MAdCAM-1-FC or human recombinant VCAM-1-Fc bound to selected cell populations using flow cytometry. Human recombinant MAdCAM-1-FC or human recombinant VCAM-1-FC (R&D systems) were biotinylated using commercially available reagents and protocol (Pierce).
Whole blood was collected from human donors in sodium heparin tubes. […] Cells were washed twice with 1 mL of 1X DPBS calcium magnesium free (CMF) (ThermoFisher Scientific) and resuspended in 100 microL of DPBS CMF.
Biotinylated human recombinant MAdCAM-1-Fc or VCAM-1-Fc were added at saturating concentration and incubated at room temperature for 1 hour. […] Cells were washed with 1 mL stain buffer-FBS (BD Biosciences) and resuspended in 100 μl stain Buffer-FBS (BD Biosciences) containing 4 mM MnCl2. […] Cells were then washed with 1 mL stain buffer-FBS and resuspended in […] stain buffer-FBS. The cells were incubated in the dark for 30 minutes at room temperature with 1 ul Streptavidin APC (Biolegend 0.2 mg/ml) and a panel of antibodies for the detection of memory T helper a4b7-positive cells subset. And amount of 5.0 ul each of the following antibodies were used; CD45 FITC (BioLegend 200 ug/ml), CD29 APC Cy7 (BioLegend 100 ug/ml), Integrin beta7 PE, (BioLegend concentration 50 μg/mL), CD49d V421 (BioLegend 50 μg/mL), CD3 V510 (BioLegend 30 μg/mL), CD4 PECy7 (BioLegend 100 μg/mL), CD45RO PerCP, BioLegend 200 μg/mL). The cells were then washed with stain-buffer-FBS and resuspended in 150 microL stain buffer-FBS for acquisition on the flow cytometer (BD FACSCanto™ flow cytometer and BDFACSDiva™ software). FACS data was acquire by electronic gating on the basis of forward versus side scatter, The cytometer was set to collect 20,000 events in each tube. Cell population were determined using the following markers, CD45+, CD3+, CD4+, CD45RO+, CD49d+, integrin b7, biotinylated ligands.
Compound receptor occupancy was defined as the decrease in the number of integrin β7+ or integrin β7-lo cells binding biotinylated rhMAdCAM-1 or rhVCAM-1, respectively.
Receptor occupancy was calculated with the following equation: 100−((% ligand-positive cells with compound/% ligand-positive cells DMSO)*100) In Vivo T Lymphocyte Trafficking Analysis in Mouse Model of Colitis

[1] = inhibition of MAdCAM-1 binding to α4β7-positive Th memory cells, FACS, read-out: MADCAM FACS α4β7 Th mem

SMILES	IC50 [1]	EC50 (FIG. 7, read-out: EC50, competition with saturating amount of MAdCAM)	IC50 (FIG. 7, read-out: IC50, MAdCAM-1 competition on α4β7-positive primary cells)
CC(C)C[C@@H]1NC(=O)c2ccc(-c3ccc(N4CCN(C(=O)c5cc(F)ccc5-c5ccc(F)cc5C(=O)N5CCN(c6ccc(-c7ccc8cc7CNC(=O)[C@@H]7CCCN7[C@H](C(=O)NC(C)(C)C)[C@H](C)NC(=O)[C@H]([C@@H](C)O)NC(=O)[C@H](CC(=O)O)NC(=O)[C@H](CC(C)C)NC8=O)cc6)CC5)CC4)cc3)c(c2)CNC(=O)[C@@H]2CCCN2[C@H](C(=O)NC(C)(C)C)[C@H](C)NC(=O)[C@H]([C@@H](C)O)NC(=O)[C@H](CC(=O)O)NC1=O [Compound 475]	74 nM		
CC(C)C[C@@H]1NC(=O)C[C@H](CCCCN)N(C)C(=O)[C@H](CCCCNC(=O)CCCCCCCC(=O)NCCCC[C@@H]2NC(=O)[C@@H]3CCCN3[C@H](C(=O)NC(C)(C)C)[C@H](C)NC(=O)[C@H]([C@@H](C)O)NC(=O)[C@H](CC(=O)O)NC(=O)[C@H](CC(C)C)NC(=O)C[C@H](CCCCN)N(C)C2=O)NC(=O)[C@@H]2CCCN2[C@H](C(=O)NC(C)(C)C)[C@H](C)NC(=O)[C@H]([C@@H](C)O)NC(=O)[C@H](CC(=O)O)NC1=O [Compound 533]	46 nM		
CC(C)C[C@@H]1NC(=O)c2ccc(-c3ccc(N4CCN(C(=O)c5ccccc5-c5ccccc5C(=O)N5CCN(c6ccc(-c7ccc8cc7CNC(=O)[C@@H]7CCCN7[C@H](C(=O)NC(C)(C)C)[C@H](C)NC(=O)[C@H]([C@@H](C)O)NC(=O)[C@H](CC(=O)O)NC(=O)[C@H](CC(C)C)NC8=O)cc6)CC5)CC4)cc3)c(c2)CNC(=O)[C@@H]2CCCN2[C@H](C(=O)NC(C)(C)C)[C@H](C)NC(=O)[C@H]([C@@H](C)O)NC(=O)[C@H](CC(=O)O)NC1=O [Compound 517]	43 nM	38 nM	
CC(C)C[C@@H]1NC(=O)c2ccc(-c3ccc(N4CCN(C(=O)c5ccc(C(=O)N6CCN(c7ccc(-c8ccc9cc8CNC(=O)[C@@H]8CCCN8[C@H](C(=O)NC(C)(C)C)[C@H](C)NC(=O)[C@H]([C@@H](C)O)NC(=O)[C@H](CC(=O)O)NC(=O)[C@H](CC(C)C)NC9=O)cc7)CC6)s5)CC4)cc3)c(c2)CNC(=O)[C@@H]2CCCN2[C@H](C(=O)NC(C)(C)C)[C@H](C)NC(=O)[C@H]([C@@H](C)O)NC(=O)[C@H](CC(=O)O)NC1=O [Compound 470]	81 nM		
CC(C)C[C@@H]1NC(=O)c2ccc(-c3ccc(N4CCN(C(=O)c5cc(C(=O)N6CCN(c7ccc(-c8ccc9cc8CNC(=O)[C@@H]8CCCN8[C@H](C(=O)NC(C)(C)C)[C@H](C)NC(=O)[C@H]([C@@H](C)O)NC(=O)[C@H](CC(=O)O)NC(=O)[C@H](CC(C)C)NC9=O)cc7)CC6)cc(C(=O)N6CCN(c7ccc(-c8ccc9cc8CNC(=O)[C@@H]8CCCN8[C@H](C(=O)NC(C)(C)C)[C@H](C)NC(=O)[C@H]([C@@H](C)O)NC(=O)[C@H](CC(=O)O)NC(=O)[C@H](CC(C)C)NC9=O)cc7)CC6)c5)CC4)cc3)c(c2)CNC(=O)[C@@H]2CCCN2[C@H](C(=O)NC(C)(C)C)[C@H](C)NC(=O)[C@H]([C@@H](C)O)NC(=O)[C@H](CC(=O)O)NC1=O [Compound 520]	1.2 nM		
CC(C)C[C@@H]1NC(=O)c2ccc(-c3ccc(N4CCN(CCC(=O)N5CCN(c6ccc(-c7ccc8cc7CNC(=O)[C@@H]7CCCN7[C@H](C(=O)NC(C)(C)C)[C@H](C)NC(=O)[C@H]([C@@H](C)O)NC(=O)[C@H](CC(=O)O)NC(=O)[C@H](CC(C)C)NC8=O)cc6)CC5)CC4)cc3)c(c2)CNC(=O)[C@@H]2CCCN2[C@H](C(=O)NC(C)(C)C)[C@H](C)NC(=O)[C@H]([C@@H](C)O)NC(=O)[C@H](CC(=O)O)NC1=O [Compound 482]	30 nM		
CC(C)C[C@@H]1NC(=O)c2ccc(-c3ccc(N4CCN(C(=O)CC[C@H](N)C(=O)N5CCN(c6ccc(-c7ccc8cc7CNC(=O)[C@@H]7CCCN7[C@H](C(=O)NC(C)(C)C)[C@H](C)NC(=O)[C@H]([C@@H](C)O)NC(=O)[C@H](CC(=O)O)NC(=O)[C@H](CC(C)C)NC8=O)cc6)CC5)CC4)cc3)c(c2)CNC(=O)[C@@H]2CCCN2[C@H](C(=O)NC(C)(C)C)[C@H](C)NC(=O)[C@H]([C@@H](C)O)NC(=O)[C@H](CC(=O)O)NC1=O [Compound 494]	128 nM		
CC(C)C[C@@H]1NC(=O)c2ccc(-c3ccc(N4CCN(Cc5ccc(CN6CCN(c7ccc(-c8ccc9cc8CNC(=O)[C@@H]8CCCN8[C@H](C(=O)NC(C)(C)C)[C@H](C)NC(=O)[C@H]([C@@H](C)O)NC(=O)[C@H](CC(=O)O)NC(=O)[C@H](CC(C)C)NC9=O)cc7)CC6)cc5)CC4)cc3)c(c2)CNC(=O)[C@@H]2CCCN2[C@H](C(=O)NC(C)(C)C)[C@H](C)NC(=O)[C@H]([C@@H](C)O)NC(=O)[C@H](CC(=O)O)NC1=O [Compound 500]	55 nM		
CC(C)C[C@@H]1NC(=O)C[C@H](CCCCN)N(C)C(=O)[C@H](CCCCNC(=O)c2ccccc2-c2ccccc2C(=O)NCCCC[C@@H]2NC(=O)[C@@H]3CCCN3[C@H](C(=O)NC(C)(C)C)[C@H](C)NC(=O)[C@H]([C@@H](C)O)NC(=O)[C@H](CC(=O)O)NC(=O)[C@H](CC(C)C)NC(=O)C[C@H](CCCCN)N(C)C2=O)NC(=O)[C@@H]2CCCN2[C@H](C(=O)NC(C)(C)C)[C@H](C)NC(=O)[C@H]([C@@H](C)O)NC(=O)[C@H](CC(=O)O)NC1=O [Compound 535]	77 nM		76 nM
CC(C)C[C@@H]1NC(=O)c2ccc(-c3ccc(N4CCN(C(=O)CCC(=O)N5CCN(c6ccc(-c7ccc8cc7CNC(=O)[C@@H]7CCCN7[C@H](C(=O)NC(C)(C)C)[C@H](C)NC(=O)[C@H]([C@@H](C)O)NC(=O)[C@H](CC(=O)O)NC(=O)[C@H](CC(C)C)NC8=O)cc6)CC5)CC4)cc3)c(c2)CNC(=O)[C@@H]2CCCN2[C@H](C(=O)NC(C)(C)C)[C@H](C)NC(=O)[C@H]([C@@H](C)O)NC(=O)[C@H](CC(=O)O)NC1=O [Compound 484]	45 nM		
